In patent US20080096861A1, “Chemical Compounds” (SMITHKLINE BEECHAM CORPORATION, priority 2004, published 2008):
Where two headings read alike, the source gives them in different places.

Columns and labels:
Type in all cases: cell-based
[1] = Compound cytotoxicity in HOS cells in the absence of virus (CellTiter-Glo); conditions: human, no virus, read-out: Cytotox (pIC50) (converted)
Protocol: Compounds were profiled against two HIV-1 viruses, the M-tropic (CCR5 utilizing) Ba-L strain and the T-tropic (CXCR4 utilizing) IIIB strain. Both viruses were propagated in human peripheral blood lymphocytes. Compounds were tested for there ability to block infection of the HOS cell line (expressing hCXCR4/hCCR5/hCD4/pHIV-LTR-luciferase) by either HIV-1 Ba-L or HIV-1 IIIB. Compound cytotoxicity was also examined in the absence of virus addition.
HOS cells (expressing hCXCR4/hCCR5/hCD4/pHIV-LTR-luciferase) were harvested and diluted in Dulbeccos modified Eagles media supplemented with 2% FCS and non-essential amino acid to a concentration of 60,000 cells/ml. The cells were plated into 96-well plates (100 ul per well) and the plates were placed in a tissue culture incubator (37° C.; 5% CO2/95% air) for a period of 24 h.
Subsequently, 50 ul of the desired drug solution (4 times the final concentration) was added to each well and the plates were returned to the tissue culture incubator (37° C.; 5% CO2/95% air) for 1 h. Following this incubation 50 ul of diluted virus was added to each well (approximately 2 million RLU per well of virus). The plates were returned to the tissue culture incubator (37° C.; 5% CO2/95% air) and were incubated for a further 96 h.
Following this incubation the endpoint for the virally infected cultures was quantified following addition of Steady-Glo Luciferase assay system reagent (Promega, Madison, Wis.). Cell viability or non-infected cultures was measured using a CellTiter-Glo luminescent cell viability assay system (Promega, Madison, Wis.). All luminescent readouts are performed on a Topcount luminescence detector (Packard, Meridien, Conn.).

CXCR4 receptor = target: T1, CXCR4 receptor (Homo sapiens, UniProt P61073); assay: Functional FLIPR assay (block of SDF-1 alpha induced [Ca2+]i change); conditions: HEK-293 cells, human CXCR4 BacMam and Gqi5 BacMam, read-out: Functional assay (pIC50) (converted)
T1 construct: expressed in transfected cells; host or cells: HEK-293 cells (stably expressing human macrophage scavenger receptor) transduced with human CXCR4 BacMam and Gqi5 BacMam
T1 sequence (P61073 whole entry): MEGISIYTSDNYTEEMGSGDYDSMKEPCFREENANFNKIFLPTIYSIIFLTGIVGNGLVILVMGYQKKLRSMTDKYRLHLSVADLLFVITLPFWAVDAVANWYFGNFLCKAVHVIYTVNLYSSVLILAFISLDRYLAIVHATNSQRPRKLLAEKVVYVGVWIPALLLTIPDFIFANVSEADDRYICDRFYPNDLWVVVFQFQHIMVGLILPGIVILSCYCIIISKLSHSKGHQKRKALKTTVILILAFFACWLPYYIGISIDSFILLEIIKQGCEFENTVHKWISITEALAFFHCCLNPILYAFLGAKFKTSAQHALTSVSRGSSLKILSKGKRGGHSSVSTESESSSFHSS
Protocol: Human embryonic kidney (HEK-293) cells were maintained and harvested as described above. Cells were plated in 96-well, black clear bottom, poly-lysine coated plates at a concentration of 40,000 cells per well in a final volume of 100 ul containing human CXCR4BacMam (MOI=25) and Gqi5 BacMam (MOI=12.5). The cells were incubated at 37° C., 5% CO2, 95% humidity for 24 h to allow for protein expression.
After the required incubation time the cells were washed once with 50 ul of fresh serum-free DMEM/F12 media containing probenicid. 50 ul of dye solution was then added to the cells (Calcium Plus Assay Kit Dye; Molecular Devices) was dissolved in 200 ml of the above probenicid/BSA containing media and incubated for 1 h. Cell plates were transferred to a Fluorometric Imaging Plate Reader (FLIPR). Upon addition the effect of the compounds on the change in [Ca^2+]i was examined to determine if the compounds were agonists or antagonists (ability to block SDF-1 alpha activity) at the CXCR4 receptor. IC50 values are determined and pKb values are calculated using the Leff and Dougall equation: KB═IC50/((2+([agonist]/EC50̂b)̂1/b−1) Where IC50 is that defined by the antagonist concentration-response curve [agonist)] is the EC80 concentration of agonist used EC50 is that defined by the agonist concentration-response curve b is the slope of the agonist concentration-response curve.

[2] = test system: HIV-1 gp160 (HXB2 strain) mediated cell/cell fusion; assay: Cell/cell fusion assay (HOS hCXCR4/hCCR5/hCD4/pHIV-LTR-luciferase cells with HEK-293 cells expressing HIV-1 tat, rev, gp160), luciferase readout; conditions: Homo sapiens, HEK293, 24 h, read-out: Fusion assay (pIC50) (converted)
Description: The complete coding sequences of HIV-1 tat (GenBank Accession No. X07861) and rev (GenBank Accession No. M34378) were cloned into pcDNA3.1 expression vectors containing G418 and hygromycin resistance genes, respectively. The complete coding sequence of the HIV-1 (HXB2 strain) gp160 envelope gene (nucleotide bases 6225-8795 of GenBank Accession No. K03455) was cloned into plasmid pCRII-TOPO. The three HIV genes were additionally inserted into the baculovirus shuttle vector, pFastBacMam1, under the transcriptional control of the CMV promoter. A construction of the pHIV-1 LTR containing mutated NFkB sequences linked to the luciferase reporter gene was prepared by digesting pcDNA3.1, containing the G418 resistance gene, with Nru I and Bam HI to remove the CMV promoter. LTR-luc was then cloned into the Nru I/Bam HI sites of the plasmid vector. Plasmid preparations were performed after the plasmids were amplified in Escherichia coli strain DH5-alpha. The fidelity of the inserted sequences was confirmed by double-strand nucleotide sequencing using an ABI Prism Model 377 automated sequencer.
Recombinant BacMam baculoviruses were constructed from pFastBacMam shuttle plasmids by using the bacterial cell-based Bac-to-Bac system. Viruses were propagated in Sf9 (Spodoptera frugiperda) cells cultured in Hink's TNM-FH Insect media supplemented with 10% (v/v) fetal bovine serum and 0.1% (v/v) pluronic F-68 according to established protocols.
Human osteosarcoma (HOS) cells that naturally express human CXCR4 were transfected with human CCR5, human CD4 and the pHIV-LTR-luciferase plasmid using FuGENE 6 transfection reagent. Single cells were isolated and grown under selection condition in order to generate a stable HOS (hCXCR4/hCCR5/hCD4/pHIV-LTR-luciferase) clonal cell line. The cells were maintained in Dulbeccos modified Eagles media supplemented with 10% fetal calf serum (FCS), G418 (400 ug/ml), puromycin (1 ug/ml), mycophenolic acid (40 ug/ml), xanthine (250 ug/ml) and hypoxanthine (13.5 ug/ml) to maintain a selection pressure for cells expressing the LTR-luciferase, hCCR5 and hCD4, respectively. Human embryonic kidney (HEK-293) cells stably transfected to express the human macrophage scavenging receptor (Class A, type 1; GenBank Accession No. D90187), were maintained in DMEM/F-12 media (1:1) supplemented with 10% FCS and 1.5 ug/ml puromycin. The expression of this receptor by the HEK-293 cells enhances their ability to stick to tissue culture treated plasticware.
HEK-293 cells were harvested using enzyme-free cell dissociation buffer. The cells were resuspended in DMEM/F-12 media supplemented with 10% FCS and 1.5 ug/ml and counted. Tranductions were performed by direct addition of BacMam baculovirus containing insect cell media to cells. The cells were simultaneously transduced with BacMam baculovirus expressing HIV-1 tat, HIV-1 rev and HIV-1 gp160 (from the HXB2 HIV strain). Routinely an MOI of 10 of each virus was added to the media containing the cells. 2 mM butyric acid was also added to the cells at this stage to increase protein expression in transduced cells. The cells were subsequently mixed and seeded into a flask at 30 million cells per T225. The cells were incubated at 37° C., 5% CO2, 95% humidity for 24 h to allow for protein expression.
HEK and HOS cells were harvested in DMEM/F-12 media containing 2% FCS and DMEM media containing 2% FCS, respectively, with no selection agents added. Compounds were plated as 1 ul spots in 100% DMSO on a 96-well CulturPlate plates. HOS cells (50 ul) were added first to the wells, followed immediately by the HEK cells (50 ul). The final concentration of each cell type was 20,000 cells per well. Following these additions, the cells were returned to a tissue culture incubator (37° C.; 5% CO2/95% air) for an additional 24 h.
Following the 24 h incubation, total cellular luciferase activity was measured using the LucLite Plus assay kit (Packard, Meridien, Conn.). […]

HIV-1 IIIB = assay: HOS HIV-1 infectivity assay
How it was run: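 Cytotoxicity was measured by CellTiter-Glo in virus-free cultures, while antiviral activity used Steady-Glo luciferase after 96 h infection with T-tropic IIIB virus (~2 million RLU/well). Both used HOS hCXCR4/hCCR5/hCD4/pHIV-LTR-luciferase cells in 2% FCS DMEM, with compound added 1 h before virus.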

[3] = Human immunodeficiency virus 1, IIIB, as determined by the infectivity assay, strain not stated in Table 2, read-out: Activity Level
[4] = Human immunodeficiency virus 1, T-tropic (CXCR4 utilizing) IIIB strain, HOS cells, 96 h, read-out: HOS (3B)

For `CN(C)CCCCCn1c(CN(C)C2CCCc3cccnc32)nc2ccccc21` (stereo not shown) [Example 17, N-({1-[5-(Dimethylamino)pentyl]-1H-benzimidazol-2-yl}methyl)-N-methyl-5,6,7,8-tetrahydro-8-quinolinamine], the IC50 at 96 h [1] was > 100000 nM, the IC50 (CXCR4 receptor) was 204 nM and the IC50 [2] was 324 nM. It also gave an IC50 (HIV-1 IIIB; [3]) of 100 to 500 nM and an IC50 (HIV-1 IIIB; [4]) of 251 nM.
With `CN1CCN(CCCn2c(CN(C)C3CCCc4cccnc43)nc3ccccc32)CC1` (stereo not shown) [Example 9, N-Methyl-N-({1-[3-(4-methyl-1-piperazinyl)propyl]-1H-benzimidazol-2-yl}methyl)-5,6,7,8-tetrahydro-8-quinolinamine] the IC50 at 96 h [1] was > 100000 nM, the IC50 (CXCR4 receptor) was 135 nM and the IC50 [2] was 166 nM. The IC50 (HIV-1 IIIB; [3]) was < 100 nM and the IC50 (HIV-1 IIIB; [4]) was 93 nM.
With `CCN(Cc1nc2ccccc2n1CCCN)C1CCCc2cccnc21` (stereo not shown) [Example 20, N-{[1-(3-Aminopropyl)-1H-benzimidazol-2-yl]methyl}-N-ethyl-5,6,7,8-tetrahydro-8-quinolinamine] the IC50 at 96 h [1] was > 100000 nM, the IC50 (CXCR4 receptor) was 28.2 nM and the IC50 [2] was 56.2 nM. The IC50 (HIV-1 IIIB; [3]) was < 100 nM and the IC50 (HIV-1 IIIB; [4]) was 21 nM.
With `CN1CCOC(Cn2c(CN(C)C3CCCc4cccnc43)nc3ccccc32)C1` (stereo not shown) [Example 25, N-Methyl-N-({1-[(4-methyl-2-morpholinyl)methyl]-1H-benzimidazol-2-yl}methyl)-5,6,7,8-tetrahydro-8-quinolinamine] the IC50 at 96 h [1] was > 100000 nM, the IC50 (CXCR4 receptor) was 29.5 nM and the IC50 [2] was 38 nM. It also gave an IC50 (HIV-1 IIIB; [3]) of 100 to 500 nM and an IC50 (HIV-1 IIIB; [4]) of 185 nM.
In the case of `CN(Cc1nc2ccccc2n1CCN1CCCCC1)C1CCCc2cccnc21` (stereo not shown) [Example 4, N-Methyl-N-({1-[2-(1-piperidinyl)ethyl]-1H-benzimidazol-2-yl}methyl)-5,6,7,8-tetrahydro-8-quinolinamine], the IC50 at 96 h [1] is reported as > 100000 nM, the IC50 (CXCR4 receptor) is reported as 60.3 nM and the IC50 [2] is reported as 138 nM. For the same molecule, the IC50 (HIV-1 IIIB; [3]) was 100 to 500 nM and the IC50 (HIV-1 IIIB; [4]) was 156 nM.
For `CN(C)CCCn1c(CN(C)C2CCCc3cccnc32)nc2ccccc21` (stereo not shown) [Example 15c, N-({1-[3-(Dimethylamino)propyl]-1H-benzimidazol-2-yl}methyl)-N-methyl-5,6,7,8-tetrahydro-8-quinolinamine], the IC50 at 96 h [1] was > 100000 nM, the IC50 (CXCR4 receptor) was 17 nM and the IC50 [2] was 16.6 nM. The IC50 (HIV-1 IIIB; [3]) was < 100 nM and the IC50 (HIV-1 IIIB; [4]) was 23 nM.
With `CN(C)C/C=C\Cn1c(CN(C)C2CCCc3cccnc32)nc2ccccc21` (stereo not shown) [Example 24, N-({1-[(2Z)-4-(Dimethylamino)-2-buten-1-yl]-1H-benzimidazol-2-yl}methyl)-N-methyl-5,6,7,8-tetrahydro-8-quinolinamine] the IC50 at 96 h [1] was > 100000 nM, the IC50 (CXCR4 receptor) was 15.5 nM and the IC50 [2] was 20.4 nM. For the same molecule, the IC50 (HIV-1 IIIB; [3]) was < 100 nM and the IC50 (HIV-1 IIIB; [4]) was 25 nM.
For `CN(Cc1nc2ccccc2n1CCN1CCOCC1)C1CCCc2cccnc21` (stereo not shown) [Example 5, N-Methyl-N-({1-[2-(4-morpholinyl)ethyl]-1H-benzimidazol-2-yl}methyl)-5,6,7,8-tetrahydro-8-quinolinamine], the IC50 at 96 h [1] was > 100000 nM, the IC50 (CXCR4 receptor) was 123 nM and the IC50 [2] was 200 nM. The IC50 (HIV-1 IIIB; [3]) was 100 to 500 nM and the IC50 (HIV-1 IIIB; [4]) was 225 nM.
With `CN1CCCCC1CCn1c(CN(C)C2CCCc3cccnc32)nc2ccccc21` (stereo not shown) [Example 23e, N-Methyl-N-({1-[2-(1-methyl-2-piperidinyl)ethyl]-1H-benzimidazol-2-yl}methyl)-5,6,7,8-tetrahydro-8-quinolinamine] the IC50 at 96 h [1] was > 100000 nM, the IC50 (CXCR4 receptor) was 17.4 nM and the IC50 [2] was 38 nM. For the same molecule, the IC50 (HIV-1 IIIB; [3]) was < 100 nM and the IC50 (HIV-1 IIIB; [4]) was 33 nM.
For `CC(C)CCN(Cc1nc2ccccc2n1CCCN)C1CCCc2cccnc21` (stereo not shown) [Example 22, N-{[1-(3-Aminopropyl)-1H-benzimidazol-2-yl]methyl}-N-(3-methylbutyl)-5,6,7,8-tetrahydro-8-quinolinamine], the IC50 at 96 h [1] was > 100000 nM, the IC50 (CXCR4 receptor) was 56.2 nM and the IC50 [2] was 158 nM. The IC50 (HIV-1 IIIB; [3]) was 100 to 500 nM and the IC50 (HIV-1 IIIB; [4]) was 113 nM.
In the case of `CN(Cc1nc2ccccc2n1CCCNCc1ccccn1)C1CCCc2cccnc21` (stereo not shown) [Example 16, N-Methyl-N-[(1-{3-[(2-pyridinylmethyl)amino]propyl}-1H-benzimidazol-2-yl)methyl]-5,6,7,8-tetrahydro-8-quinolinamine], the IC50 at 96 h [1] is reported as > 100000 nM, the IC50 (CXCR4 receptor) is reported as 58.9 nM and the IC50 [2] is reported as 148 nM. It also gave an IC50 (HIV-1 IIIB; [3]) of 100 to 500 nM and an IC50 (HIV-1 IIIB; [4]) of 121 nM.
With `CN(Cc1nc2ccccc2n1CCN)C1CCCc2cccnc21` (stereo not shown) [Example 18, N-{[1-(2-Aminoethyl)-1H-benzimidazol-2-yl]methyl}-N-methyl-5,6,7,8-tetrahydro-8-quinolinamine] the IC50 at 96 h [1] was > 100000 nM, the IC50 (CXCR4 receptor) was 166 nM and the IC50 [2] was 316 nM.
